Assay results taken from ChEMBL document CHEMBL4819116, “Design, synthesis, and biological evaluation of stapled ascaphin-8 peptides” (Bioorg Med Chem, 2021).
Where a SMILES comes first, the peptide text is derived from it. Bridges are numbered along the chain shown (N, C = ends). [ ]: non-standard residue; d: D form. S8 = C=CCCCCCC[C@](C)(N)C(=O)O; S5 = C=CCCC[C@](C)(N)C(=O)O

Experiments:
[1] = Helicity of the compound in TFE aqueous solution by CD spectroscopy; format: physicochemical; conditions: buffer
A549 [2] = assay: Inhibition of colony formation in human A549 cells measured after 14 days by crystal violet staining based light microscopy; format: functional, cell-based; conditions: dose 0-4 µM, time 14.0 day
LNCaP C4-2B = assay: Cytotoxicity against human LNCaP C4-2B cells assessed as reduction in cell viability measured after 96 hrs b y CCK-8 assay; format: functional, cell-based
trypsin [3] = target: T1, trypsin (Homo sapiens, UniProt P07477+P07478+P35030); assay: Stability of the compound assessed as trypsin (unknown origin)-mediated degradation by measuring half life using pH 7.4 PBS buffer by HPLC analysis; format: ADME, protein assay; conditions: trypsin in PBS buffer
A549 [4] = assay: Antimigratory activity against human A549 cells assessed as inhibition of cell migration measured for 24 hrs by crystal violet staining - light microscopy based transwell migration assay; format: functional; conditions: dose 0-4 µM
[5] = Hemolytic activity in rabbit red blood cells assessed as hemoglobin release; format: ADME, cell-based, Oryctolagus cuniculus, Erythrocyte
HEK-293T = assay: Cytotoxicity against human HEK293T cells assessed as reduction in cell viability measured after 96 hrs b y CCK-8 assay; format: cell-based
A549 [6] = assay: Cytotoxicity against human A549 cells assessed as reduction in cell viability measured after 96 hrs b y CCK-8 assay; format: functional, cell-based; conditions: A549, 96 h
trypsin [7] = target: T1, trypsin; assay: Stability of the compound assessed as trypsin (unknown origin)-mediated degradation using pH 7.4 PBS buffer measured for 60 mins by HPLC analysis; format: ADME, protein assay; conditions: trypsin in PBS buffer, read-out: Drug degradation

Molecule | Activity [1] [%] | inhibition (A549 [2]) | IC50 (LNCaP C4-2B) [µM] | half-life (trypsin [3]) [min] | Activity (A549 [4]) | HC50 [5] [µM] | IC50 (HEK-293T) [µM] | IC50 (A549 [6]) [µM] | metabolised at 1 h (trypsin [7]) [%]
CC(C)C[C@H](NC(=O)[C@H](CC(C)C)NC(=O)[C@H](CC(=O)O)NC(=O)[C@H](CCCCN)NC(=O)[C@H](Cc1ccccc1)NC(=O)CN)C(=O)N[C@@H](CCCCN)C(=O)NCC(=O)N[C@@H](C)C(=O)N[C@@H](C)C(=O)N[C@@H](CCCCN)C(=O)N[C@@]1(C)CCC/C=C\CCC[C@@](C)(C(=O)N[C@H](C(=O)N[C@@H](CC(C)C)C(=O)N[C@@H](Cc2ccccc2)C(N)=O)C(C)C)NC(=O)[C@H](CCCCN)NC(=O)[C@H](C(C)C)NC(=O)[C@H](CC(C)C)NC1=O (H-GFKDLLKGAAK[S5]LVK[S5]VLF-NH2; staple (Z) 12-16) | 51 | Dose-Dependent Effect | 7.17 | 36 | Dose-Dependent Effect | 40.6 | 16.4 | 2.39 | –
CC(C)C[C@@H]1NC(=O)[C@H](C)NC(=O)[C@H](CCCCN)NC(=O)[C@H](C)NC(=O)[C@@](C)(NC(=O)CNC(=O)[C@H](CCCCN)NC(=O)[C@H](CC(C)C)NC(=O)[C@H](CC(C)C)NC(=O)[C@H](CC(=O)O)NC(=O)[C@H](CCCCN)NC(=O)[C@H](Cc2ccccc2)NC(=O)CN)CCCCCC/C=C/CCC[C@@](C)(C(=O)N[C@H](C(=O)N[C@@H](CC(C)C)C(=O)N[C@@H](Cc2ccccc2)C(N)=O)C(C)C)NC(=O)[C@H](CCCCN)NC(=O)[C@H](C(C)C)NC1=O (H-GFKDLLKG[S8]AKALVK[S5]VLF-NH2; staple (E) 9-16) | 80 | – | 17.3 | – | – | 90.5 | 44.3 | 11.7 | –
CC(C)C[C@H](NC(=O)[C@H](CC(=O)O)NC(=O)[C@H](CCCCN)NC(=O)[C@H](Cc1ccccc1)NC(=O)CN)C(=O)N[C@@H](CC(C)C)C(=O)N[C@@H](CCCCN)C(=O)N[C@@]1(C)CCC/C=C\CCC[C@@](C)(C(=O)N[C@@H](CC(C)C)C(=O)N[C@H](C(=O)N[C@@H](CCCCN)C(=O)N[C@H](C(=O)N[C@H](C(=O)N[C@@H](CC(C)C)C(=O)N[C@@H](Cc2ccccc2)C(N)=O)C(C)C)[C@@H](C)O)C(C)C)NC(=O)[C@H](CCCCN)NC(=O)[C@H](C)NC(=O)[C@H](C)NC1=O (H-GFKDLLK[S5]AAK[S5]LVKTVLF-NH2; staple (Z) 8-12) | 48 | – | 7.88 | – | – | 40.2 | 19.7 | 2.57 | –
CC(C)C[C@H](NC(=O)[C@H](C)NC(=O)[C@H](CCCCN)NC(=O)[C@H](C)NC(=O)[C@H](C)NC(=O)[C@]1(C)CCC/C=C\CCC[C@](C)(NC(=O)[C@H](CCCCN)NC(=O)[C@H](Cc2ccccc2)NC(=O)CN)C(=O)N[C@@H](CC(C)C)C(=O)N[C@@H](CC(C)C)C(=O)N[C@@H](CCCCN)C(=O)N1)C(=O)N[C@H](C(=O)N[C@@H](CCCCN)C(=O)N[C@H](C(=O)N[C@H](C(=O)N[C@@H](CC(C)C)C(=O)N[C@@H](Cc1ccccc1)C(N)=O)C(C)C)[C@@H](C)O)C(C)C (H-GFK[S5]LLK[S5]AAKALVKTVLF-NH2; staple (Z) 4-8) | 42 | – | 11.1 | – | – | 79.9 | 33.9 | 4.1 | –
H-GFKDLLKGAAKALVKTVLF-NH2 [Ascaphin-8] | 47 | – | 42.9 | 14 | – | > 100 | 53.7 | 33.8 | 100
